From ChEMBL document CHEMBL6074684, “Structure-activity relationship study of novel evodiamine amino acid conjugates with potent anti-colorectal cancer efficacy” (Eur J Med Chem, 2025)
Converted amounts (≈) assume the structure as drawn. The source made the active and inactive calls. No cut-off for these calls is given here.

Columns and labels:
HT-29 [1] = assay: Antiproliferative activity against human HT-29 cells assessed as inhibition of cell growth incubated for 72 hrs by MTT assay; format: functional, cell-based; details: HT-29, 72 h
Mitochondrial membrane [2] = assay: Induction of mitochondrial membrane potential loss in human RKO cells assessed as decrease in TMRE positive cells at 90 nM incubated for 24 hrs by TMRE staining based flow cytometric analysis; format: cell membranes
LoVo [3] = assay: Induction of morphological changes in human LoVo cells assessed as appearance of contracted nucleus at 90 nM incubated for 24 hrs by Giemsa staining based microscopic analysis; format: functional, cell-based
[4] = AUC (0 to t) in male Sprague-Dawley rat at 50 mg/kg, ip measured after 24 hrs by LC-MS/MS analysis; format: ADME, organism-based; details: in vivo
LoVo [5] = assay: Cell cycle arrest in human LoVo cells assessed as accumulation of cells at S phase cells at 90 nM incubated for 24 hrs by […]PI staining based flow cytometric analysis (reference value: 54.99 %); format: functional
LoVo [6] = assay: Antiproliferative activity against human LoVo cells assessed as inhibition of cell growth incubated for 72 hrs by MTT assay; format: functional, cell-based
LoVo [7] = assay: Antiproliferative activity against human LoVo cells assessed as reduction in cell viability measured after 24 hrs; format: functional, cell-based; details: dose 40-200 nmol/L
[8] = Apparent clearance during terminal phase in male Sprague-Dawley rat at 50 mg/kg, ip measured after 24 hrs by LC-MS/MS analysis; format: ADME, organism-based; details: in vivo, read-out: CLz/F (converted)
LoVo [9] = assay: Cell cycle arrest in human LoVo cells assessed as accumulation of cells at G2 phase cells at 90 nM incubated for 24 hrs by […]PI staining based flow cytometric analysis (reference value: 14.84 %); format: functional
HCT-116 = assay: Antiproliferative activity against human […] cells assessed as inhibition of cell growth incubated for 72 hrs by MTT assay; format: functional, cell-based; details: HCT-116, 72 h
RKO [10] = assay: Induction of morphological changes in human RKO cells assessed as appearance of contracted nucleus at 90 nM incubated for 24 hrs by Giemsa staining based microscopic analysis; format: functional, cell-based
LoVo [11] = assay: Antitumor activity against human LoVo cells xenografted in male BALB/c nude mouse assessed as tumor growth inhibition at 40 mg/kg, ip administered once daily for 14 days relative to control; format: functional; details: 336 h, time 14 day, read-out: TGI
RKO [12] = assay: Induction of apoptosis in human RKO cells assessed as apoptosis rate at 90 nM incubated for 24 hrs by Annexin V/PI staining based flow cytometric analysis (reference value: 4.87 %); format: functional
[13] = Cmax in male Sprague-Dawley rat at 50 mg/kg, ip measured after 24 hrs by LC-MS/MS analysis; format: ADME, organism-based; details: in vivo
LoVo [14] = assay: Induction of apoptosis in human LoVo cells assessed as apoptosis rate at 90 nM incubated for 24 hrs by Annexin V/PI staining based flow cytometric analysis (reference value: 4.71 %); format: functional
RKO [15] = assay: Induction of morphological changes in human RKO cells assessed as appearance of condensed morphology at 90 nM incubated for 24 hrs by Giemsa staining based microscopic analysis; format: functional, cell-based
RKO [16] = assay: Cell cycle arrest in human RKO cells assessed as accumulation of cells at G2 phase at 90 nM incubated for 24 hrs by […]PI staining based flow cytometric analysis (reference value: 20.07 %); format: functional
[17] = Tmax in male Sprague-Dawley rat at 50 mg/kg, ip measured after 24 hrs by LC-MS/MS analysis; format: ADME, organism-based; details: in vivo
LoVo [18] = assay: Induction of morphological changes in human LoVo cells assessed as appearance of condensed morphology at 90 nM incubated for 24 hrs by Giemsa staining based microscopic analysis; format: functional, cell-based
[19] = Aqueous solubility of compound by HPLC analysis; format: physicochemical
RKO [20] = assay: Antiproliferative activity against human RKO cells assessed as reduction in cell viability measured after 24 hrs; format: functional, cell-based; details: dose 40-200 nmol/L
LoVo [21] = assay: Cell cycle arrest in human LoVo cells assessed as accumulation of cells at G1 phase cells at 90 nM incubated for 24 hrs by […]PI staining based flow cytometric analysis (reference value: 29.69 %); format: functional
Mitochondrial membrane [22] = assay: Induction of mitochondrial membrane potential loss in human LoVo cells assessed as decrease in TMRE positive cells at 90 nM incubated for 24 hrs by TMRE staining based flow cytometric analysis; format: cell membranes
RKO [23] = assay: Cell cycle arrest in human RKO cells assessed as accumulation of cells at G1 phase at 90 nM incubated for 24 hrs by […]PI staining based flow cytometric analysis (reference value: 35.29 %); format: functional
RKO [24] = assay: Antiproliferative activity against human RKO cells assessed as inhibition of cell growth incubated for 72 hrs by MTT assay; format: functional, cell-based
[25] = Toxicity in male BALB/c nude mouse xenografted with human LoVo cells assessed as body weight loss at 40 mg/kg, ip administered once daily for 14 days; format: organism-based; details: in vivo, 336 h, time 14 day
[26] = Half-life in male Sprague-Dawley rat at 50 mg/kg, ip measured after 24 hrs by LC-MS/MS analysis; format: ADME, organism-based; details: in vivo
RKO [27] = assay: Cell cycle arrest in human RKO cells assessed as accumulation of cells at S phase at 90 nM incubated for 24 hrs by […]PI staining based flow cytometric analysis (reference value: 43.36 %); format: functional
HGC-27 = assay: Antiproliferative activity against human HGC-27 cells assessed as inhibition of cell growth incubated for 72 hrs by MTT assay; format: functional, cell-based; details: HGC-27, 72 h
MCF7 = assay: Antiproliferative activity against human MCF7 cells assessed as inhibition of cell growth incubated for 72 hrs by MTT assay; format: functional, cell-based; details: MCF7, 72 h
MGC-803 = assay: Antiproliferative activity against human MGC-803 cells assessed as inhibition of cell growth incubated for 72 hrs by MTT assay; format: functional, cell-based; details: MGC-803, 72 h
Huh-7 = assay: Antiproliferative activity against human Huh-7 cells assessed as inhibition of cell growth incubated for 72 hrs by MTT assay; format: functional, cell-based; details: Huh-7, 72 h
SK-HEP1 = assay: Antiproliferative activity against human SK-HEP1 cells assessed as inhibition of cell growth incubated for 72 hrs by MTT assay; format: functional, cell-based; details: SK-HEP1, 72 h
SGC-7901 = assay: Antiproliferative activity against human SGC-7901 cells assessed as inhibition of cell growth incubated for 72 hrs by MTT assay; format: functional, cell-based; details: SGC-7901, 72 h
[28] = target: T1, DNA topoisomerase 1 (Homo sapiens) (UniProt P11387); assay: Inhibition of topoisomerase 1 (unknown origin) mediated DNA relaxation at 100 uM preincubated for 20 mins followed by pBR322 plasmid DNA addition and measured after 15 mins by red nucleic acid gel staining based agarose gel electrophoresis; details: time 35.0 min
T1 sequence (whole entry): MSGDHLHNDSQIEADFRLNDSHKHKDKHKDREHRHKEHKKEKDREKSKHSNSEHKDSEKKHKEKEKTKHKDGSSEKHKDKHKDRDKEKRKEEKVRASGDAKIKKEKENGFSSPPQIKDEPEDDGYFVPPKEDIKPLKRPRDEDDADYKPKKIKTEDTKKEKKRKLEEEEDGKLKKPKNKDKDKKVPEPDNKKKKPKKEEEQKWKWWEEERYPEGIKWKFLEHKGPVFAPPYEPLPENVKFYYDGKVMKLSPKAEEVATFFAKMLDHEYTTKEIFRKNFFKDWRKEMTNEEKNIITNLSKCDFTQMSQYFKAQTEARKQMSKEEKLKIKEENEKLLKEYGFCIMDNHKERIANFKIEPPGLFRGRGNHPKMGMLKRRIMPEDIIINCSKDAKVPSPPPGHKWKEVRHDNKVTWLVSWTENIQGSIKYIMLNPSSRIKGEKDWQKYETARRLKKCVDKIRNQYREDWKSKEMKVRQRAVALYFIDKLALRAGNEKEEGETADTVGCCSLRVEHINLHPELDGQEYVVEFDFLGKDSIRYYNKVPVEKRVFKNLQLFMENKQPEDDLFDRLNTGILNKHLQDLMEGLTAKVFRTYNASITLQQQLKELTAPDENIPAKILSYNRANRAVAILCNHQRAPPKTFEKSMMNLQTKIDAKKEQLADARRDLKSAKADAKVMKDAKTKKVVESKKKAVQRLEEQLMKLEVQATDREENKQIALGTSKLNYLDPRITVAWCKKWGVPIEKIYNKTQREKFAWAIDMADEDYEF

[29] = Toxicity in male BALB/c nude mouse xenografted with human HT-29 cells assessed as animal death at 0.5 mg/kg, ip administered once daily for 14 days; format: organism-based; details: in vivo, 336 h, time 14 day
LoVo [30] = assay: Antitumor activity against human LoVo cells xenografted in male BALB/c nude mouse assessed as tumor growth inhibition at 0.5 mg/kg, ip administered once daily for 14 days; format: functional, organism-based; details: time 14.0 day
HT-29 [31] = assay: Antitumor activity against human HT-29 cells xenografted in male BALB/c nude mouse assessed as tumor growth inhibition at 0.5 mg/kg, ip administered once daily for 14 days relative to control; format: functional; details: HT-29, 336 h, time 14 day, read-out: TGI
[32] = Toxicity in male BALB/c nude mouse xenografted with human LoVo cells assessed as animal death at 0.5 mg/kg, ip administered once daily for 14 days; format: organism-based; details: in vivo, 336 h, time 14 day
[33] = Toxicity in male BALB/c nude mouse xenografted with human LoVo cells assessed as body weight loss at 0.5 mg/kg, ip administered once daily for 14 days; format: organism-based; details: in vivo, 336 h, time 14 day
[34] = Toxicity in male BALB/c nude mouse xenografted with human HT-29 cells assessed as body weight loss at 0.5 mg/kg, ip administered once daily for 14 days; format: organism-based; details: in vivo, 336 h, time 14 day

## O=C1c2cc(F)ccc2N(c2cccc(F)c2)[C@@H]2c3[nH]c4ccc(O)cc4c3CCN12
HT-29 [1]
  IC50: 0.21 µM
Mitochondrial membrane [2]
  Activity: Active
LoVo [3]
  Activity: Active
[4]
  AUC(0-t) at 24 h: 4350 ng·h/mL
LoVo [5]
  Activity: 48.04%
LoVo [6]
  IC50: 0.17 µM
LoVo [7]
  Activity: Dose-dependent-effect
[8]
  CL/F: 77.8 mL/min/kg
LoVo [9]
  Activity: 31.88%
HCT-116
  IC50: 0.27 µM
RKO [10]
  Activity: Active
LoVo [11]
  inhibition in vivo at 40 mg/kg: 51.2%
RKO [12]
  Activity: 13.9%
[13]
  Cmax: 2190 ng/mL
LoVo [14]
  Activity: 25.44%
RKO [15]
  Activity: Active
RKO [16]
  Activity: 42.34%
[17]
  Tmax: 0.5 h
LoVo [18]
  Activity: Active
[19]
  solubility: 3.24 µg/mL (≈ 7.76 µM)
RKO [20]
  Activity: Dose-dependent-effect
LoVo [21]
  Activity: 18.84%
Mitochondrial membrane [22]
  Activity: Active
RKO [23]
  Activity: 35.52%
RKO [24]
  IC50: 0.13 µM
[25]
  Activity: Toxic
[26]
  half-life: 4.18 h
RKO [27]
  Activity: 21.88%

## CC(C)(C)OC(=O)N[C@@H](CCC(N)=O)C(=O)Oc1ccc2[nH]c3c(c2c1)CCN1C(=O)c2cc(F)ccc2N(c2cccc(F)c2)[C@@H]31
HT-29 [1]
  IC50: 26.8 µM
HGC-27
  IC50: 18.8 µM
LoVo [6]
  IC50: 12.7 µM
HCT-116
  IC50: 19.2 µM
MCF7
  IC50: 24.6 µM
MGC-803
  IC50: 15.1 µM
Huh-7
  IC50: 11.5 µM
SK-HEP1
  IC50: 37 µM
SGC-7901
  IC50: 59.6 µM
RKO [24]
  IC50: 9.3 µM
[28]
  inhibition: Active; Better Activity Than Evodiamine

## CC[C@@]1(O)C(=O)OCc2c1cc1n(c2=O)Cc2cc3c(CN(C)C)c(O)ccc3nc2-1 [TOPOTECAN]
[29]
  Activity: Toxic
LoVo [30]
  Activity: Active
HT-29 [31]
  inhibition in vivo at 0.5 mg/kg: 70.7%
[32]
  Activity: Toxic
[33]
  Activity: Toxic
[34]
  Activity: Toxic

## O=C1c2cc(F)ccc2N(c2cccc(F)c2)C2c3[nH]c4ccc(O)cc4c3CCN12 (racemic)
HT-29 [1]
  IC50: 0.16 µM
LoVo [6]
  IC50: 0.35 µM
HCT-116
  IC50: 0.2 µM
[19]
  solubility: 7.58 µg/mL (≈ 18.2 µM)
RKO [24]
  IC50: 0.17 µM
[28]
  inhibition: Active; Little Effect Observed
